One assay concerns OPC differentiation. Nature of the assay: Oligodendrocyte precursor cell (OPC) differentiation assay (MBP immunocytochemistry). The following applies: for EC50: Rattus norvegicus, Oligodendrocyte precursor cell. The format is cell-based, rat. The protocol: The effects of small-molecule inverse agonists and neutral antagonists of histamine receptor 3 (H3R) on OPC differentiation were determined using the following assay.
The enriched OPC were obtained from dissecting 2-d-old rat pups forebrain. The pups were anesthetized and decapitated. Then the skull was cut with microdissecting scissors and the cortex was taken out with Dumont forceps. The meninges were removed with fine tips. After repeated trituration of the cortex through cell strainer, cells were re-suspended with the culture media consisted of DMEM supplemented with 20% Fetal bovine serum (Invitrogen, Carlsbad, Calif.), glutamine (4 mM, (Invitrogen), and plated onto poly-D-lysine (PDL, […] for 1 h, Sigma, St. Louis, Mo.)-coated T75 flasks. The resulting cultures were fed with fresh culture media twice per week and almost all the neurons will die due to the high concentration of serum in one week. Then the mixed glial cells were subjected to a series shake-off procedure to obtain pure OPCs two weeks later. Specifically, the mixed glial cells were shaken initially for 1 hour at 100 rpm to remove microglia and shaken for 20-22 hours at 37° C. at 200 rpm to enrich OPCs. OPCs were collected by centrifugation at 1200 rpm for 5 min, re-suspended in basal chemically defined medium (BDM). BDM consisted of DMEM supplemented with N2 medium (100×, Invitrogen), glutamine (4 mM, Invitrogen), BSA (0.1 mg/ml, Sigma), hydrocortisone (20 nM, Sigma), selenium (30 nM, Sigma) and biotin (10 nM, Sigma). OPCs were plated on poly-ornithine (PO, 50 μg/ml for 1 hr, Sigma)-coated culture dishes and maintained in BDM supplemented with bFGF (10 ng/ml, Invitrogen) and PDGF (10 ng/ml, PeproTech, Rocky Hill, N.J.) before experimental manipulation. OPCs were 95% pure judged by A2B5+ staining.
To initiate OPC differentiation, OPCs were firstly treated with 0.05% Trypsin/EDTA, and seeded into PO-coated 384-mini well plate at a density of 2,000 to 5,000 cells/well. Each test compound was dissolved in DMSO at the concentration of 10 mM for the assay. Compounds at different concentrations (full dose curve, 0.3 nM-10 uM) were added into the OPC culture in duplicates with Echo machine (Thermo, Waltham, Mass.). OPCs were cultured in BDM supplemented with N-acetyl-L-cystenine (30 μM, Sigma) to differentiate into mature oligodendrocytes for 4 days. BDM comprise DMEM (Invitrogen), N2 (100×, Invitrogen), L-Glu (50×, Invitrogen), Sodium Pyruvate (100×, Invitrogen), BSA (0.1%, Sigma), Biotin (10 nM, Sigma), hydrocortisone (10 nM, Sigma). The resulting cultures were fixed with 4% polyformaldehyde (Sigma) and samples were blocked with the blocking buffer (Donkey Serum 3%, Sigma; Triton X-100 0.04%, Sigma). Then fixed cells were incubated in primary antibodies (anti-myelin basic protein, MBP antibody, 600× dilution in blocking buffer) overnight at 4° C., washed thoroughly with PBS and then incubated with Alexa 488-labeled secondary antibody (Molecular Probes, Invitrogen) for 2 h at R.T; then washed thoroughly with PBS and stained with Dapi (1 ug/ml, Sigma),
The full-plate immunocytochemistry staining was read by an automatic image-based analysis system-Cellomics (Thermo) and the raw data for each well was acquired as percentage of MBP+ population as follows: Pictures of eight fields per well were captured and analyzed quantitatively; the well data is the average of 8 fields. The intensity of anti-MBP staining in the cytosol was used as the criteria of positive objects. The threshold of positive objects was set based on the average intensity of the positive control well, for which triiodothyronine (15 nM) was used. Then the data was analyzed and presented as fold change of the number of the vehicle control well. Graphs were generated by softwares: Microsoft Excel and IDBS XL fits. The curve fitting was performed with software XL fits to derive EC50 of the positive compounds.
All data except FIG. 1 are given as mean±standard error of the mean (SEM). […]

The subject of assay [1] is MAG and MBP expression in OPCs. Nature of the assay: Western blot of mature oligodendrocyte markers in differentiating OPCs. The format is cell-based, rat. The note with it: differentiating oligodendrocytes after treatment. As to the method: The antibodies used for immunoblot and immunocytochemistry experiments were rabbit anti-myelin basic protein (MBP, Millipore, Billerica, Mass.), mouse anti-myelin-associated glycoprotein (MAG, abcam, Cambridge, Mass.).
After treatments, OPCs were washed twice with ice-cold PBS and total cell lysates were harvested in RIPA lysis buffer (50 mM Tris-HCl, pH 7.5, 1 mM EDTA, 1 mM EGTA, 1 mM sodium orthovanadate, 50 mM sodium fluoride, 0.1% 2-mercaptoethanol, 1% triton X-100 and proteases inhibitor cocktail). The lysates were briefly sonicated and stored at −80° C. before Western analysis. The BCA Protein Assay Reagent (PIERCE, Thermo) was performed to determine protein concentration. 15 μg of total protein per sample was aliquoted, boiled for 5 min after being mixed with 2×SDS buffer (125 mM Tris-HCl, 4% SDS, 20% glycerol, 100 mM DTT) and separated by SDS-PAGE on Bis-Tris mini-gels (Invitrogen). Separated proteins were then transferred to nitrocellulose membranes and blocked in 5% milk/TBS-0.1% Tween for 1 h at room temperature. Membranes were then incubated in the presence of primary antibodies diluted in 5% milk/TBS-0.1% Tween overnight at 4° C. The following day, membranes were washed 3 times for 5 min with TBS-0.1% Tween and incubated for 1 h at room temperature in 5% milk/TBS-0.1%. […]
On the technique in general: Immunoblotting shows a protein as a band on a membrane.

Like-named read-outs stand apart in the source and are kept apart here.

On to `O=C1CCCN1c1ccc(Oc2ccc3c(c2)CCN(C2CCC2)CC3)nc1` [Example compound 1, 1-{6-[(3-cyclobutyl-2,3,4,5-tetrahydro-1H-3-benzazepin-7-yl)oxy]-3-pyridinyl}-2-pyrrolidinone], for which the EC50 (in general, the concentration giving half of the maximal effect) with OPC differentiation (five experiments (n=5), FIG. 3b, read-out: EC50, promotion of OPC differentiation) was 159 ± 57 nM; in the assay with OPC differentiation (two experiments (n=2), FIG. 3a, read-out: EC50, promotion of OPC differentiation) it was 118 ± 49 nM. For the same molecule, in the assay with OPC differentiation (at 3 uM, n=5, FIG. 3b), the MBP-positive cells entry is listed as “up to 1.8±0.1 folds of control”. The “expression levels of MAG and MBP (western blot)” value in assay [1] is “increased expression levels”.
For the molecule `c1cc2c(cc1-c1noc(CC3CCN(C4CCC4)CC3)n1)OCO2` [Example compound 2, 3-(benzo[d][1,3]dioxol-5-yl)-5-((1-cyclobutylpiperidin-4-yl)methyl)-1,2,4-oxadiazole], the EC50 in the assay on OPC differentiation (96 h, 0.3 nM-10 uM, 4 days, FIG. 1, read-out: EC50, promotion of OPC differentiation (MBP+ population)) amounted to 25 nM. For the same molecule, the “expression levels of MAG and MBP (western blot)” value in assay [1] is on record as “significant increase”.

The values are drawn from patent US20150080380A1, “Therapeutic Uses” (GLAXOSMITHKLINE INTELLECTUAL PROPERTY DEVELOPMENT LIMITED, priority 2012, published 2015).
